# Assay results taken from publication PMC9321718 (Pharmaceuticals, 2022).
# Entries after “also recorded” stand apart in the source; their conditions may differ. Where two headings read alike, the source gives them in different places.
# Columns and labels:
# [1] = Formation of inclusion complexes with MCD (UV spectroscopy, Hill linearization); assay type: physicochemical; details: MCD; for EE, % / LC, %: C(MCD) = 0.01 M, pH 6.2, 22 °C; for n: Xaq + n MCDaq ⇌ X·nMCDaq, 5 mM sodium phosphate buffer pH 6.2, 22 °C
# Experimental: To optimize the system composition, similar experiments were carried out on the formation of EG and apiol inclusion complexes with HPCD (Figure S1). […] According to these changes, the dissociation constants of the EG–HPCD and apiol–HPCD complexes (Figure S2) were calculated by Hill’s equation (Table 1). […] The physicochemical parameters of the interaction of APAB and terpenoids (X) with CD were studied by determining the concentration of substances in the aqueous fraction ([APAB] + [APAB-MCD]) according to the calibration dependence (Figure 1C) for systems with a constant amount of the essential oil component X and the concentration gradient MCD (Table 1). Theta (θ) is a fraction of the bound substance X:θ = [X-MCD]/([X-MCD] + [X]) and was calculated based on the dependence of the absorption intensity X on the MCD concentration in the system in the form of a sigmoidal Hill curve with subsequent linearization (Section 3, Section 3.3 and Section 3.4).
# The molar excess of CD varied from 0.04 to 10). Further, the complexes were incubated for 1 h at 37 °C and then centrifuged ([…], 15 min, Eppendorf tubes) to separate the insoluble fractions. Complexes were studied by UV and FTIR spectroscopy.
# UV spectra of solutions (point 3.3.1) were recorded on the AmerSham Biosciences UltraSpec 2100 pro device (USA) three times in the range of 200–400 nm in a quartz cell Hellma 100–QS with an optical path of 1 cm. Background spectrum (5 mM sodium phosphate buffer (pH 6.2) with 50% EtOH) was subtracted as a blank.
# (1) Calculation of the dissociation constants X–MCD and X–HPCD, where X is a “guest” compound, considering the equilibrium: Xaq + n MCDaq ↔ X·nMCDaq, where Kd = [MCDaq]^n · [Xaq]/[X·nMCDaq].
# First, fitting of the curves of change of the analytical signal ξ (peak intensity or peak position) versus concentration of the MCD or HPCD or was carried out using the Hill equations: (1) ξ = ξ∞ · [MCD]^n/([MCD]^n + K^n), where ξ∞—horizontal asymptote; (2) ξ = ξ0 + (ξ∞–ξ0) · [MCD]^n/([MCD]^n + K^n). Second, calculation n and Kd values by Hill’s linearization in n-binding site model: lg (θ/(1 – θ)) = n · lg [L] – lg Kd, where θ = |(ξ – ξ0)/(ξ∞ − ξ0)|is a fraction of the bound substance. N in Hill equation—number of drug molecules per CD torus.
# Calculations for the following items are performed when [MCD] = 0.01 M.
# E. coli = assay: Synergy of adjuvant-MCD with Lev-MCD, growth inhibition zones in agar; assay type: cell-based, Escherichia coli; details: for D, diameter of bacterial inhibition zone surrounding Lev–MCD with APAB-MCD: Lev-MCD + X-MCD (1:2), ±0.5; for ϕLev = (D/DLev)^2: ±0.1; for FICI: ±15%; for increase in Lev antibacterial activity / efficacy: growth inhibition diameter measurement in agar, inclusion complexes with MCD
# Experimental: We obtained complex formulations containing adjuvants-MCD and Lev-MCD. These complexes were referred to as enhanced Lev. The synergy effect was studied at a constant concentration of Lev and a variable concentration of an enhancer. […] Based on the D/DLev ratio, the effectiveness of cooperative antibacterial action (ϕ) of the adjuvant and Lev was calculated. The fractional inhibitory concentration (FIC) parameter was introduced: at a fixed Lev concentration, the FIC of adjuvant corresponds to the minimum fractional adjuvant concentration at which the antibacterial effect was still manifest (MICadjuvant in the presence of Lev). The fractional inhibitory concentration index (FICI) characterizes the ratio of the active Lev and adjuvant concentrations to the MIC values of these substances individually: FICI=[Lev]/MIC(Lev)[…][adjuvant]/MIC(adjuvant) (see Section 3).
# The FICI was interpreted as: synergism (<0.35), additivity (0.35–0.75), indifference (0.75–1.4), or antagonism (>1.4). FICI is designed to determine the type of Lev interaction with adjuvants.
# The study of the antibacterial effect of Lev and adjuvants was carried out by (a) agar diffusion test and (b) broth micro-dilution method. (a) A measured 500 µL of 100-fold culture dilution was evenly distributed over a solid nutrient medium (LB, pH 7.2) on a Petri dish. After 20 min, agar disks with a diameter of 9 mm were removed from the cups and 50 µL of the test samples were placed in the formed wells at the required concentration in a sterile PBS buffer (see Section 3.3 (2)). After 30 min, Petri dishes were placed in a 37 °C thermostat. […] Minimum inhibitory concentrations (MICs) are determined as the infimum of multiple concentrations of an antimicrobial that inhibits the visible growth of a microorganism after overnight incubation. (b) According to the standard broth micro-dilution method, 200 µL of the overnight culture (5 × 10^6 CFU) was placed into a 96 micro-titer plate wells. Then 50 µL of tested samples was added. The range of tested Lev concentration was 4–200 ng/mL, adjuvants concentration was in the range of 0.008–2 mg/mL. […] The dependence of CFU (determined by A600) on the concentration of Lev, APAB or terpenoid (briefly X) was approximated according to the Boltzmann equation (Origin software): CFU = (control CFU)/(1 + exp(([X] − MIC50)/constant value)). […] In other words, the concentration at which the ordinate value (CFU) is equal to 50 or 10% of the control sample minus the background.
# The FICI was interpreted as: synergism (<0.35), additivity (0.35–0.75), indifference (0.76–1.4), or antagonism (>1.4). The essence of this expression is to calculate the average change in the effective concentration compared to MIC. Note that the most important parameter corresponds to a decrease in MIC of Lev. However, FICI is designed to determine the type of interaction Lev with adjuvants.
# physchem = details: 22 °C, pH 6.2, water
# Experimental: (3) Solubility of X in water C0 = [Xaq] = A/(ε · l) was determined by UV absorbance after centrifugation of samples (10 min, 10,000× g). l = 1 cm. ε—molar absorbance coefficient (Figure 1C).
Structure (SMILES),"EE, % [1]","LC, % [1]",n [1],decrease of MICLev in the presence of adjuvant (E. coli; E. coli),"D, diameter of bacterial inhibition zone surrounding Lev–MCD with APAB-MCD (E. coli; E. coli, CLev 0.1 μg/mL)","ϕLev = (D/DLev)^2 (E. coli; E. coli, CLev 0.1 μg/mL)","FICI (E. coli; E. coli, CLev 0.1 μg/mL)","D, diameter of bacterial inhibition zone surrounding Lev–MCD with APAB-MCD (E. coli; E. coli, CLev 0.15 μg/mL)","ϕLev = (D/DLev)^2 (E. coli; E. coli, CLev 0.15 μg/mL)","FICI (E. coli; E. coli, CLev 0.15 μg/mL)",solubility (physchem),further results
C=CCc1cc(OC)c2c(c1OC)OCO2 [Apiol],20 ± 2%,11 ± 1%,1.6 ± 0.2,up to twice,14.5 mm,1.6,0.35,14 mm,2.0,0.20,–,–
"C=CCc1ccc(O)c(OC)c1 [Eugenol, 4-allyl-2-methoxyphenol]",39 ± 3%,10 ± 1%,1.32 ± 0.08,–,20 mm,3.3,0.10,15 mm,2.3,0.05,8200 ± 200 µM,"D, diameter of bacterial inhibition zone surrounding Lev–MCD with APAB-MCD (E. coli; E. coli, CLev 0.03 μg/mL): 14 mm; ϕLev = (D/DLev)^2 (E. coli; E. coli, CLev 0.03 μg/mL): 2.0; FICI (E. coli; E. coli, CLev 0.03 μg/mL): 0.30; D, diameter of bacterial inhibition zone surrounding Lev–MCD with APAB-MCD (E. coli; E. coli, CLev 0.05 μg/mL): 17 mm; ϕLev = (D/DLev)^2 (E. coli; E. coli, CLev 0.05 μg/mL): 2.9; FICI (E. coli; E. coli, CLev 0.05 μg/mL): 0.08; D, diameter of bacterial inhibition zone surrounding Lev–MCD with APAB-MCD (E. coli; E. coli, CLev 0.5 μg/mL): 26 mm; ϕLev = (D/DLev)^2 (E. coli; E. coli, CLev 0.5 μg/mL): 1.3; FICI (E. coli; E. coli, CLev 0.5 μg/mL): 1.3; amplification effect of adjuvant (E. coli; E. coli, at minimal Lev concentrations): 3 fold; MICLev in the presence of adjuvant (E. coli; E. coli, reduced from 0.10 μg/mL): 0.015 to 0.02 µg/mL; decrease of Lev MIC (E. coli; conclusions, bacterium not stated): 3–4 times; increase in Lev antibacterial activity / efficacy (E. coli; listed as EG): over three-fold; also recorded: two–three-fold"
CC1CCC(C(C)C)C(O)C1 (stereo not shown) [Menthol],91 ± 6%,11 ± 1%,1.1 ± 0.1,up to twice,13.5 mm,1.7,0.02,14 mm,2.0,0.15,230 ± 40 µM,"EE, % ([1]; listed as menthol): more than 90%; increase in Lev antibacterial activity / efficacy (E. coli): two–three-fold"
C=CCc1ccc2c(c1)OCO2 [Safrole],95 ± 4%,8 ± 1%,1.5 ± 0.2,–,–,–,–,14.5 mm,2.1,0.09,800 ± 100 µM,"EE, % ([1]; listed as safrole): more than 90%; MICLev in the presence of adjuvant (E. coli): 0.015 to 0.02 µg/mL"
